Results on 1 molecule are retold here after paper PMC6218639, “The calcium sensitizer drug MCI-154 binds the structural C-terminal domain of cardiac troponin C” (Biochemistry and Biophysics Reports, 2018).

Molecules are shown by their SMILES.

The target in the test is T1, cardiac troponin C (cTnC) (Homo sapiens, UniProt P63316, C35S/C84S).
T1 construct: gene TNNC1; cTnC residues 1–161
As to the kind of experiment: 2D 1H, […]-HSQC NMR titration (KD […]), confirmed by ITC. Type of test: binding. In general terms: Isothermal titration calorimetry measures the heat released or taken up as one component is titrated into another.

In turn, `O=C1CCC(c2ccc(Nc3ccncc3)cc2)=NN1` [MCI-154, 6-(4-(pyridin-4-ylamino)phenyl)-4,5-dihydropyridazin-3(2H)-one] had a Kd of 500 ± 100 µM.

The term Kd denotes a measure of binding affinity in units of concentration. High values mean weaker binding, low ones tighter binding.
